# Experimental data from patent US8614201B2 (Janssen Pharmaceutica NV, priority 2009, dated 2013).
# Molecular target: Human TRPA1 (Homo sapiens, UniProt O75762)
# Assay: Alternative TRPA1 Ca2+ fluorometry assay (hTRPA1/TREx-HEK293 cells, Fluo-4, FDSS 6000)
# Format: cell-based
# Design: expressed in transfected cells
# Conditions: Fluo-4-AM, agonist 6,11-dihydro-5H-dibenzo[b,e]azepine-10-carboxylic acid methyl ester 25 nM, procedure used for Examples 184, 190 to 192, 194 to 316
# Experimental: In alternative embodiments, the assay was performed using the following procedure for Examples 184, 190 to 192, and 194 to 316:
# The human TRPA1 gene was cloned into the pT-Rex-Dest30 inducible vector and stably transfected in T-Rex™-293 cells (Invitrogen, Merelbeke, Belgium). This tetracycline inducible hTRPA1 expression system was used in order to prevent CA^2+ overload in the cultured cells due to sustained TRPA1 expression. hTRPA1/TREx-HEK293 cells (referred to as jTRPA1 cells in the following text) were maintained under standard sterile cell culture conditions. The culture medium for the jTRPA1-HEK cells was DMEN (Gibco BRL, Invitrogen, Merelbeke, Belgium) supplemented with 5 g/l gengticin (Gibco), 5 mL/l blasticidin (Invitorgen), 14.6 g/l L-Glutamine (200 mMl; Gibco), 5 g/l penicillin/streptomycin (5.10-6 IU/I, Gibco), 5.5 g/l pyruvic acid (Gibco) and 10% foetal calf serum (Hyclone, Logan Utah, USA).
# For Ca^2+ fluorometry experiments, hTRPA1-HEK cells were resuspended in HBSS seeding medium: HBSS (with CaCl2 and MgCl2: Gibco) supplemented with 14.6 g/l L-Glutamine (200 mM; Gibco), 5 g/l penicillin/streptomycin (5.10-6 IU/l. Gibco), 5.5 g/l pyruvic acid (Gibco) and 10% foetal calf serum (heat inactivated for 30 minutes at 56° C.; Hyclone, Logan Utah, USA). The cells were seeded in poly-D-lysine-coated 384-well round bottom polypropylene plates (Costar Corning, Data Packaging, Cambridge Mass., USA) at 12000 cells/well. Fifty ng/ml tetracycline was added to induce the hTRPA1 expression 24 h before the experiment.
# The cells were loaded with 5 mg/l Fluo-4-AM (Molecular Probes, Invitorgen, Merelbeke, Belgium) dissolved in HBSS seeding medium supplemented with 0.7 g/l Probenecid (Sigma) and incubated for 1 h at 37° C. and subsequently at 20° C. for 1 to 2 h. The fluorescence was measured in the FDSS 6000 imaging based plate reader (Hamamutsu Photonics K.K., Hamamutsu City, Japan). The excitation wavelength was 488 nm and the emission wavelength 540 nm. After a control period of 12 seconds the inventive compounds were added and the Ca^2+ signal was measured within 14 minutes after application. Finally, a TRPA1 agonist, 6,11-dihydro-5H-dibenzo[b,e]azepine-10-carboxylic acid methyl ester, was added at a final concentration of 25 nM. The emission ratio was calculated by dividing the emission signal (Em540) by the first EM540 signal of the control period to compensate for the background fluorescence. […] For intracellular Ca^2+ measurements, a compound stock solution (10 to 100 mM) was further diluted in DMSO in order to obtain a final 1% DMSO concentration in the extracellular solution.
# Sequence of Human TRPA1 (O75762 whole entry): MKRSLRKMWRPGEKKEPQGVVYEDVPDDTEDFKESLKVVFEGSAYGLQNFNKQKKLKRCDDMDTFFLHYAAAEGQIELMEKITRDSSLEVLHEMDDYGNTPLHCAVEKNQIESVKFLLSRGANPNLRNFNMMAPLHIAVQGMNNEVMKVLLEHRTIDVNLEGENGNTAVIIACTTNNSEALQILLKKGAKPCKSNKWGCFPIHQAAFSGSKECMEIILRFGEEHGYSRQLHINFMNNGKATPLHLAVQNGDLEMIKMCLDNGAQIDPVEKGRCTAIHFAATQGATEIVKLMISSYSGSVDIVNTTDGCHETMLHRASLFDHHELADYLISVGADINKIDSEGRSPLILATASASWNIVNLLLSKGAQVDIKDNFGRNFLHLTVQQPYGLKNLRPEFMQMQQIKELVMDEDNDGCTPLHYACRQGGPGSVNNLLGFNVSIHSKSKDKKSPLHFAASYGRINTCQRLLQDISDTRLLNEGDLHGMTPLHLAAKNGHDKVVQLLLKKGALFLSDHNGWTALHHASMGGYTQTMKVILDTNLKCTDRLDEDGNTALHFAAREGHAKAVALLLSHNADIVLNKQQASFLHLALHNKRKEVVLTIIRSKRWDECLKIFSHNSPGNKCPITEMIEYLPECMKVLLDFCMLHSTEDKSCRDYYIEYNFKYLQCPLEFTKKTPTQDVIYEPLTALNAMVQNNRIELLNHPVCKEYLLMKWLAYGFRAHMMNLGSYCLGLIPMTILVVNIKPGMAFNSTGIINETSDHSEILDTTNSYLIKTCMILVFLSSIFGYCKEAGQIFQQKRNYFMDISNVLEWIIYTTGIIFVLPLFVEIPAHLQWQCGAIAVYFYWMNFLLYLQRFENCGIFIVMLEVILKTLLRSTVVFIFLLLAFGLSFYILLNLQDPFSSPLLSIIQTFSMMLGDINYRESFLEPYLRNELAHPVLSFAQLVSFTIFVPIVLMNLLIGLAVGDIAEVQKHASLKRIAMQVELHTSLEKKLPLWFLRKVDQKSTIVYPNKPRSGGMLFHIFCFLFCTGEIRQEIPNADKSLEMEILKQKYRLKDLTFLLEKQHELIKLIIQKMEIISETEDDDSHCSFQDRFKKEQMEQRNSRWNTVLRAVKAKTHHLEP
row,IC50 [nM],Compound
1,1290,"COc1ccc(F)cc1-c1cc(CNC(=O)[C@@H]2CCCN2S(=O)(=O)c2ccc(F)cc2)nc(N2CCN(c3ccccc3F)CC2)n1 [Example 230, 1-(4-Fluoro-benzenesulfonyl)-pyrrolidine-2S-carboxylic acid {6-(5-fluoro-2-methoxy-phenyl)-2-[4-(2-fluoro-phenyl)-piperazin-1-yl]-pyrimidin-4-ylmethyl}-amide]"
2,1120,"Cc1ccc(C)c(-c2cc(CNC(=O)[C@@H]3CCCN3S(=O)(=O)c3ccc(F)cc3)nc(N3CCN(c4ccccc4F)CC3)n2)c1 [Example 232, 1-(4-Fluoro-benzenesulfonyl)-pyrrolidine-2S-carboxylic acid {6-(2,5-dimethyl-phenyl)-2-[4-(2-fluoro-phenyl)-piperazin-1-yl]-pyrimidin-4-ylmethyl}-amide]"
3,~372,"O=C(NCc1cc(-c2ccc(F)cc2F)nc(N2CCN(c3ccccc3F)CC2)n1)[C@@H]1CCCN1S(=O)(=O)c1ccc(F)cc1 [Example 233, 1-(4-Fluoro-benzenesulfonyl)-pyrrolidine-2S-carboxylic acid {6-(2,4-difluoro-phenyl)-2-[4-(2-fluoro-phenyl)-piperazin-1-yl]-pyrimidin-4-ylmethyl}-amide]"
4,> 10000,"O=C(NCc1cc(-c2cccc(OC(F)(F)F)c2)nc(N2CCN(c3ccccc3F)CC2)n1)[C@@H]1CCCN1S(=O)(=O)c1ccc(F)cc1 [Example 234, 1-(4-Fluoro-benzenesulfonyl)-pyrrolidine-2S-carboxylic acid [2-[4-(2-fluoro-phenyl)-piperazin-1-yl]-6-(3-trifluoromethoxy-phenyl)-pyrimidin-4-ylmethyl]-amide]"
5,5890,"N#Cc1cccc(-c2cc(CNC(=O)[C@@H]3CCCN3S(=O)(=O)c3ccc(F)cc3)nc(N3CCN(c4ccccc4F)CC3)n2)c1 [Example 235, 1-(4-Fluoro-benzenesulfonyl)-pyrrolidine-2S-carboxylic acid {6-(3-cyano-phenyl)-2-[4-(2-fluoro-phenyl)-piperazin-1-yl]-pyrimidin-4-ylmethyl}-amide]"
6,> 10000,"Cc1cc(C)cc(-c2cc(CNC(=O)[C@@H]3CCCN3S(=O)(=O)c3ccc(F)cc3)nc(N3CCN(c4ccccc4F)CC3)n2)c1 [Example 236, 1-(4-Fluoro-benzenesulfonyl)-pyrrolidine-2S-carboxylic acid {6-(3,5-dimethyl-phenyl)-2-[4-(2-fluoro-phenyl)-piperazin-1-yl]-pyrimidin-4-ylmethyl}-amide]"
7,> 10000,"CN(C)c1cccc(-c2cc(CNC(=O)[C@@H]3CCCN3S(=O)(=O)c3ccc(F)cc3)nc(N3CCN(c4ccccc4F)CC3)n2)c1 [Example 237, 1-(4-Fluoro-benzenesulfonyl)-pyrrolidine-2S-carboxylic acid {6-(3-dimethylamino-phenyl)-2-[4-(2-fluoro-phenyl)-piperazin-1-yl]-pyrimidin-4-ylmethyl}-amide]"
8,1290,"O=C(NCc1cc(-c2ccc3c(c2)OCO3)nc(N2CCN(c3ccccc3F)CC2)n1)[C@@H]1CCCN1S(=O)(=O)c1ccc(F)cc1 [Example 238, 1-(4-Fluoro-benzenesulfonyl)-pyrrolidine-2S-carboxylic acid {6-benzo[1,3]dioxol-5-yl-2-[4-(2-fluoro-phenyl)-piperazin-1-yl]-pyrimidin-4-ylmethyl}-amide]"
9,5010,"O=C(NCc1cc(-c2cccc(Cl)c2)nc(N2CCN(c3ccccc3F)CC2)n1)[C@@H]1CCCN1S(=O)(=O)c1ccc(F)cc1 [Example 239, 1-(4-Fluoro-benzenesulfonyl)-pyrrolidine-2S-carboxylic acid {6-(3-chloro-phenyl)-2-[4-(2-fluoro-phenyl)-piperazin-1-yl]-pyrimidin-4-ylmethyl}-amide]"
10,~933,"Cc1cccc(C)c1-c1cc(CNC(=O)[C@@H]2CCCN2S(=O)(=O)c2ccc(F)cc2)nc(N2CCN(c3ccccc3F)CC2)n1 [Example 240, 1-(4-Fluoro-benzenesulfonyl)-pyrrolidine-2S-carboxylic acid {6-(2,6-dimethyl-phenyl)-2-[4-(2-fluoro-phenyl)-piperazin-1-yl]-pyrimidin-4-ylmethyl}-amide]"
11,417,"O=C(NCc1cc(-c2ccc(Cl)cc2)nc(N2CCN(c3ccccc3F)CC2)n1)[C@@H]1CCCN1S(=O)(=O)c1ccc(F)cc1 [Example 241, 1-(4-Fluoro-benzenesulfonyl)-pyrrolidine-2-carboxylic acid {6-(4-chloro-phenyl)-2-[4-(2-fluoro-phenyl)-piperazin-1-yl]-pyrimidin-4-ylmethyl}-amide]"
12,~1100,"O=C(NCc1cc(-c2ccccc2Cl)nc(N2CCN(c3ccccc3F)CC2)n1)[C@@H]1CCCN1S(=O)(=O)c1ccc(F)cc1 [Example 242, 1-(4-Fluoro-benzenesulfonyl)-pyrrolidine-2-carboxylic acid {6-(2-chloro-phenyl)-2-[4-(2-fluoro-phenyl)-piperazin-1-yl]-pyrimidin-4-ylmethyl}-amide]"
13,3800,"O=C(NCc1cc(-c2cccc(C(F)(F)F)c2)nc(N2CCN(c3ccccc3F)CC2)n1)[C@@H]1CCCN1S(=O)(=O)c1ccc(F)cc1 [Example 243, 1-(4-Fluoro-benzenesulfonyl)-pyrrolidine-2S-carboxylic acid [2-[4-(2-fluoro-phenyl)-piperazin-1-yl]-6-(3-trifluoromethyl-phenyl)-pyrimidin-4-ylmethyl]-amide]"
14,> 10000,"O=C(NCc1cc(-c2ccc(F)c(Cl)c2)nc(N2CCN(c3ccccc3F)CC2)n1)[C@@H]1CCCN1S(=O)(=O)c1ccc(F)cc1 [Example 244, 1-(4-Fluoro-benzenesulfonyl)-pyrrolidine-2-carboxylic acid {6-(3-chloro-4-fluoro-phenyl)-2-[4-(2-fluoro-phenyl)-piperazin-1-yl]-pyrimidin-4-ylmethyl}-amide]"
15,2460,"O=C(NCc1cc(-c2ccccc2F)nc(N2CCN(c3ccccc3F)CC2)n1)[C@@H]1CCCN1S(=O)(=O)c1ccc(F)cc1 [Example 245, 1-(4-Fluoro-benzenesulfonyl)-pyrrolidine-2S-carboxylic acid {6-(2-fluoro-phenyl)-2-[4-(2-fluoro-phenyl)-piperazin-1-yl]-pyrimidin-4-ylmethyl}-amide]"
16,2000,"O=C(NCc1cc(-c2cccc(F)c2)nc(N2CCN(c3ccccc3F)CC2)n1)[C@@H]1CCCN1S(=O)(=O)c1ccc(F)cc1 [Example 246, 1-(4-Fluoro-benzenesulfonyl)-pyrrolidine-2S-carboxylic acid {6-(3-fluoro-phenyl)-2-[4-(2-fluoro-phenyl)-piperazin-1-yl]-pyrimidin-4-ylmethyl}-amide]"
17,~1440,"Cc1ccccc1-c1cc(CNC(=O)[C@@H]2CCCN2S(=O)(=O)c2ccc(F)cc2)nc(N2CCN(c3ccccc3F)CC2)n1 [Example 247, 1-(4-Fluoro-benzenesulfonyl)-pyrrolidine-2S-carboxylic acid {2-[4-(2-fluoro-phenyl)-piperazin-1-yl]-6-o-tolyl-pyrimidin-4-ylmethyl}-amide]"
18,~676,"O=C(NCc1cc(-c2ccc(Cl)c(Cl)c2)nc(N2CCN(c3ccccc3F)CC2)n1)[C@@H]1CCCN1S(=O)(=O)c1ccc(F)cc1 [Example 248, 1-(4-Fluoro-benzenesulfonyl)-pyrrolidine-2S-carboxylic acid {6-(3,4-dichloro-phenyl)-2-[4-(2-fluoro-phenyl)-piperazin-1-yl]-pyrimidin-4-ylmethyl}-amide]"
